EP3124047A1, “PENTACYCLIC TRITERPENOIDS FOR INJECTION LIPOLYSIS” (Merz Pharma GmbH & Co. KGaA, priority 2015, dated 2017)
Like-named read-outs stand apart in the source and are kept apart here.

Experiments:
[1] = test system: Primary human preadipocytes; test: Alamar blue (resazurin) cell viability assay on preadipocytes; format: cell-based; settings: for viability at 10 µM / viability at 30 µM / viability at 50 µM / viability at 100 µM / viability at 300 µM: read-out: Viability Preadipocytes (%); for IC50: viability, 48 hrs after compound incubation, read-out: IC50 [µM] Pre-ad ipocytes
Description: (§1) The following experimental setup was used for determination of adipocytolytic potential of test compounds with preadipocytes and mature adipocytes: • Primary human preadipocytes (PromoCell) were seeded in Preadipocyte Growth Medium at 45000 cells/cm^2 to allow attachment overnight. Cells were cultured at 37°C and 5% CO2 until postconfluence. Differentiation was started with incubation of cells in Differentiation Medium for 7 days followed by incubation in Nutrition medium for further 14 days. After differentiation process, mature adipocytes were incubated with indicated concentration of indicated triterpenes.
(§2) 6 replicates of each test compound concentration were tested. Each plate included a negative control and a compound interference control (for all concentrations, duplicates).
(§3) Cell viability as surrogate for adipocytolytic potential of compounds were analysed by alamar blue assay. In brief, 20µl of a 0,1mg/ml Resazurin sodium salt (Sigma; R7017-1 G) solution was added to each well 48 hrs after compound incubation. The cells were incubated for 90 min at 37°C and 5% CO2 and the resulting conversion of resazurin to resorufin was measured by a fluorescence plate reader at 590 nm. Vehicle controls were set as 100%. IC50-values were analysed using SigmaBlotV13.

mature adipocytes = test: Alamar blue (resazurin) cell viability assay on mature adipocytes, surrogate for adipocytolytic potential; format: cell-based, human; settings: for IC50: viability, 48 hrs after compound incubation; for lower IC50 value compared to deoxycholic acid (difference, higher adipocytolytic effect): IC50 ratio versus deoxycholic acid, preadipocytes and adipocytes
Description: as §1, §2, §3

adipocytes [2] = test: LDH release from adipocytes (indicative for membrane damage); format: cell-based, human; settings: compared with deoxycholate; far not as high as 4fold
adipocytes [3] = test: Caspase-Glo 3/7 Assay, apoptosis induction in adipocytes; format: cell-based, human; settings: for Apoptosis Adipocytes (%): basal apoptosis (vehicle) = 100%
Description: as §1
For analysing the potential of compounds to induce apoptosis the Caspase-Glo® 3/7 Assay (Promega) was used as recommended by the supplier. In brief, 100µl Caspase Reagent were added to 100µl cell culture medium and cells were incubated at 37°C and 5% CO2 for 1 hr. Luminescence signal was measured with a SynergyH4 plate reader. Vehicle controls were used to define basal apoptosis as 100%. Table 1 Impact on viability of adipocytes after 48h incubation with indicated compound in increasing concentration

[4] = 10 µM, 48h incubation, vehicle controls = 100%
[5] = 30 µM, 48h incubation, vehicle controls = 100%
[6] = 50 µM, 48h incubation, vehicle controls = 100%
[7] = 100 µM, 48h incubation, vehicle controls = 100%
[8] = 300 µM, 48h incubation, vehicle controls = 100%
[9] = Homo sapiens, Adipocyte, 48 h, 10 µM, 48h incubation, vehicle controls = 100%, read-out: Viability Adipocytes (%)
[10] = Homo sapiens, Adipocyte, 48 h, 30 µM, 48h incubation, vehicle controls = 100%, read-out: Viability Adipocytes (%)
[11] = Homo sapiens, Adipocyte, 48 h, 50 µM, 48h incubation, vehicle controls = 100%, read-out: Viability Adipocytes (%)
[12] = Homo sapiens, Adipocyte, 48 h, 100 µM, 48h incubation, vehicle controls = 100%, read-out: Viability Adipocytes (%)
[13] = Homo sapiens, Adipocyte, 48 h, 300 µM, 48h incubation, vehicle controls = 100%, read-out: Viability Adipocytes (%)
[14] = Homo sapiens, Adipocyte, 48 h, read-out: Viability Adipocytes (%), 10 µM, 48h incubation, vehicle controls = 100%
[15] = Homo sapiens, Adipocyte, 48 h, read-out: Viability Adipocytes (%), 30 µM, 48h incubation, vehicle controls = 100%
[16] = Homo sapiens, Adipocyte, 48 h, read-out: Viability Adipocytes (%), 50 µM, 48h incubation, vehicle controls = 100%
[17] = Homo sapiens, Adipocyte, 48 h, read-out: Viability Adipocytes (%), 100 µM, 48h incubation, vehicle controls = 100%
[18] = Homo sapiens, Adipocyte, 48 h, read-out: Viability Adipocytes (%), 300 µM, 48h incubation, vehicle controls = 100%

| Structure (SMILES) | viability at 10 µM [1, 4] | viability at 30 µM [1, 5] | viability at 50 µM [1, 6] | viability at 100 µM [1, 7] | viability at 300 µM [1, 8] | IC50 [1] | viability at 10 µM (mature adipocytes; [9]) | viability at 30 µM (mature adipocytes; [10]) | viability at 50 µM (mature adipocytes; [11]) | viability at 100 µM (mature adipocytes; [12]) | viability at 300 µM (mature adipocytes; [13]) | IC50 (mature adipocytes; Homo sapiens, Adipocyte) | viability at 30 µM ([1]; 48 h) | viability at 50 µM ([1]; 48 h) | viability at 100 µM ([1]; 48 h) | viability at 300 µM ([1]; 48 h) | viability at 10 µM (mature adipocytes; [14]) | viability at 30 µM (mature adipocytes; [15]) | viability at 50 µM (mature adipocytes; [16]) | viability at 100 µM (mature adipocytes; [17]) | also measured |
| --- | --- | --- | --- | --- | --- | --- | --- | --- | --- | --- | --- | --- | --- | --- | --- | --- | --- | --- | --- | --- | --- |
| C=C(C)[C@@H]1CC[C@]2(C(=O)O)CC[C@]3(C)[C@H](CC[C@@H]4[C@@]5(C)CC[C@H](O)C(C)(C)[C@@H]5CC[C@]43C)[C@@H]12 [Betulinic acid, (3β)-3-hydroxy-lup-20(29)-en-28-oic acid] | 81.8% | 48.5% | 45.1% | 17.5% | 0.45% | 35.5 µM | 104% | 85.6% | 70.7% | 32.3% | 4.9% | 72 µM |  |  |  |  |  |  |  |  |  |
| C[C@H]1[C@H](C)CC[C@]2(C(=O)O)CC[C@]3(C)C(=CC[C@@H]4[C@@]5(C)C[C@@H](O)[C@H](O)C(C)(C)[C@@H]5CC[C@]43C)[C@H]12 [Corosolic acid, (1S,2R,4aS,6aR,6aS,6bR,8aR,10R, 11R,12aR,14bS)-10,11-Dihydroxy-1,2,6a,6b,9,9,12a-heptamethyl-2,3,4,5,6,6a,7,8,8a,10,11,12,13,14b-tetradecahydro-1H-picene-4a-carboxylic acid] |  |  |  |  |  | 43.1 µM |  |  |  |  |  | 45 µM | 68.6% | 20.4% | 0% | 0% | 92.9% | 60.5% | 45.3% | 6.06% | viability at 10 µM ([1]; 48 h): 94.7%; viability at 300 µM (mature adipocytes; [18]): 0.47% |
| C[C@H](CCC(=O)O)[C@H]1CC[C@H]2[C@@H]3CC[C@@H]4C[C@H](O)CC[C@]4(C)[C@H]3C[C@H](O)[C@]12C [Deoxycholic acid, reference compound] | 96.2% | 92.8% | 95.6% | 98% | 26.1% | 232 µM | 107% |  | 95.6% | 94.3% | 22.1% | 244 µM |  |  |  |  |  |  |  |  | viability at 200 µM (mature adipocytes; Homo sapiens, Adipocyte, 48 h, 200 µM, concentration required for 50%-decrease in viability): ~50% |
| CC1(C)CC[C@]2(C(=O)O)CC[C@]3(C)C(=CC[C@@H]4[C@@]5(C)C[C@@H](O)[C@H](O)C(C)(C)[C@@H]5CC[C@]43C)[C@@H]2C1 [Maslinic acid, (4aS,6aR,6aS,6bR,8aR,10R,11R,12aR,14bS)-10,11-dihydroxy-2,2,6a,6b,9,9,12a-heptamethyl-1,3,4,5,6,6a,7,8,8a,10,11,12,13,14b-tetradecahydropicene-4a-carboxylic acid] | 96.4% | 76% | 45.6% | 2.42% | 0% | 54.3 µM | 96.9% | 76.7% | ~50% | 4.86% | 0.3% | 53.4 µM |  |  |  |  |  |  |  |  | Viability Adipocytes (%) (mature adipocytes; [6]): 47.08%; LDH release (indicative for membrane damage) from the adipocytes (adipocytes [2]): higher; Apoptosis Adipocytes (%) (adipocytes [3]; 30 µM, 6 hrs): 97.17%; Apoptosis Adipocytes (%) (adipocytes [3]; 30 µM, 48hrs): 121.70%; Apoptosis Adipocytes (%) (adipocytes [3]; 50 µM, 6 hrs): 126.43%; Apoptosis Adipocytes (%) (adipocytes [3]; 50 µM, 48hrs): 116.95%; max. apoptosis induction over basal levels (adipocytes [3]; 100 µM after 6 hrs): 6.6 fold; Apoptosis Adipocytes (%) (adipocytes [3]; 100 µM, 6 hrs): 662.48%; Apoptosis Adipocytes (%) (adipocytes [3]; 100 µM, 48hrs): 304.15%; Apoptosis Adipocytes (%) (adipocytes [3]; 200 µM, 48hrs): 378.25%; Apoptosis Adipocytes (%) (adipocytes [3]; 300 µM, 6 hrs): 398.94%; Apoptosis Adipocytes (%) (adipocytes [3]; 300 µM, 48hrs): 238.76%; pro-apoptotic capacity (adipocytes [3]; summary of the apoptosis data): clear pro-apoptotic capacity |
| CC1(C)CC[C@]2(C(=O)O)CC[C@]3(C)C(=CC[C@@H]4[C@@]5(C)CC[C@H](O)C(C)(C)[C@@H]5CC[C@]43C)[C@@H]2C1 [Oleanolic acid, (4aS,6aR,6aS,6bR,8aR,10S,12aR,14bS)-10-hydroxy-2,2,6a,6b,9,9,12a-heptamethyl-1,3,4,5,6,6a,7,8,8a,10,11,12,13,14b-tetradecahydropicene-4a-carboxylic acid] |  |  |  |  |  | 125 µM |  |  |  |  |  | 92.8 µM | 79.1% | 83.4% | 53.3% | 0% | 114% | 110% | 117% | 32.4% | viability at 300 µM (mature adipocytes; [18]): 15.8%; lower IC50 value compared to deoxycholic acid (difference, higher adipocytolytic effect) (mature adipocytes): 2.5 fold |
| C[C@H]1[C@H](C)CC[C@]2(C(=O)O)CC[C@]3(C)C(=CC[C@@H]4[C@@]5(C)CC[C@H](O)C(C)(C)[C@@H]5CC[C@]43C)[C@H]12 [Ursolic acid, (1S,2R,4aS,6aR,6aS,6bR,8aR,10S,12aR,14bS)-10-hydroxy-1,2,6a,6b,9,9,12a-heptamethyl-2,3,4,5,6,6a,7,8,8a,10,11,12,13,14b-tetradecahydro-1H-picene-4a-carboxylic acid] | 74.8% | 12.7% | 0.32% | 0% | 0% | 20.1 µM | 92.4% | 28.9% | 14.9% | 13.4% | 10.3% | 24.4 µM |  |  |  |  |  |  |  |  | lower IC50 value compared to deoxycholic acid (difference, higher adipocytolytic effect) (mature adipocytes): about 10 fold |
